Test results: US20130131136A1, “NOVEL METHODS FOR PREDICTING THE RESPONSIVENESS OF A PATIENT AFFECTED WITH A TUMOR TO A TREATMENT WITH A TYROSINE KINASE INHIBITOR” (priority 2010, published 2013)

Legend:
[1] = system: advanced metastatic renal cell clear cell carcinoma; assay: Sutent treatment of patients with advanced metastatic renal cell clear cell carcinoma, response after the 3 months therapy course (RECIST criteria); format: in vivo, human; conditions: of 50 patients analyzed, 50 mg/day for 4 weeks followed by 2 weeks off
Experimental: All patients were diagnosed with advanced metastatic renal cell clear cell carcinoma and subjected to surgery for removal of the primary tumor. The tumor tissue was fixed in formaldehyde, and embedded in paraffin. Sections were cut and stained for the FSH receptor using the monoclonal antibody FSHR323, followed by a secondary HRP- or Alexa555-coupled antibody. The density of vessels in the tumor tissue was determined by microscopy using a 20× objective. Starting at the border between the normal and the tumor tissue and moving towards the interior of the tumor, digital photographs were taken of every other field. The number of FSHR-positive vessels in each image was counted in 20 images from each tumor.
The patients were subjected to Sutent treatment for >=3 months with a dose of 50 mg/day for 4 weeks followed by 2 weeks off. Depending on the effects of the treatment, at the end of the 3 months therapy course the patients were designated as “responsive”, “stable” or “non-responsive” according to the criteria described in [Eisenhauer et al., 2009]. The patients were categorized as “responsive” if there was at least a 30% decrease in the sum of the diameters of the lesions, and “non-responsive” if the sum of the lesion sizes increased by at least 20%.

[2] = system: metastatic renal cell carcinoma (mRCC); conditions: cited from earlier work
[3] = system: RCC; conditions: BEV alone; cited from earlier work

Row | Compound | number of patients "non-responsive" (sum of the lesion sizes increased by at least 20%) [1] [patients] | number of patients "responsive" (at least 30% decrease in the sum of the diameters of the lesions) [1] [patients] | number of patients "stable" [1] [patients] | fraction of RCC patients who respond to the treatment ([2]; RCC patients) | reduction of the risk of relapse (progression-free survival) ([2]; first-line therapy, mRCC, compared to interferon-α) [%] | adverse side effects ([2]; patients, typical treatment session 3 months) | activity in patients with RCC [3]
1 | CCN(CC)CCNC(=O)c1c(C)[nH]c(/C=C2\C(=O)Nc3ccc(F)cc32)c1C [Sutent, N-[2-(diethylamino)ethyl]-5-[(Z)-(5-fluoro-1,2-dihydro-2-oxo-3H-indol-3-ylidine)methyl]-2,4-dimethyl-1H-pyrrole-3 carboxamide] | 17 | 15 | 18 | about one third | 58 | significant adverse side effects | 
2 | BEV: a monoclonal humanized antibody against circulating VEGF |  |  |  |  |  |  | showed activity only as second-line treatment and only in cytokine-refractory patients
